From patent publication US10968203B2, “Pyrimidinyl-pyridyloxy-naphthyl compounds and methods of treating IRE1-related diseases and disorders” (Genentech, Inc., priority 2017, dated 2021)
Counter-ions that a name gives are not always drawn.

These compounds were tested on XBP1s-luc 293 LUC (assay: cellular PD assay, XBP1s-LUC reporter (Example 903)). Conditions: Table 1; read-out: XBP1s-luc 293 LUC (IC50).
Format: cell-based
Summary of the method: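 A luciferase fusion, in frame and expressed only when the XBP1 transcript is spliced, served as the readout of cellular IRE1α activity in an XBP1-Luc reporter line.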

Compound	IC50 [nM]
Cc1ccc2c(NC(=O)C3(F)CC3)cccc2c1Oc1ncccc1-c1ccnc(N[C@H]2CCCNC2)n1 [Example 155, (S)-1-Fluoro-N-(6-methyl-5-((3-(2-(piperidin-3-ylamino)pyrimidin-4-yl)pyridin-2-yl)oxy)naphthalen-1-yl)cyclopropane-1-carboxamide]	380
Cc1ccc2c(NS(=O)(=O)Cc3ccccc3Cl)c(F)ccc2c1Oc1ncccc1-c1ccnc(N[C@H]2CCCNC2)n1 [Example 102, (S)-1-(2-Chlorophenyl)-N-(2-fluoro-6-methyl-5-((3-(2-(piperidin-3-ylamino)pyrimidin-4-yl)pyridin-2-yl)oxy)naphthalen-1-yl)methanesulfonamide]	4.6
Cc1ccc2c(NC(=O)[C@@H]3C[C@H]3F)cccc2c1Oc1ncccc1-c1ccnc(N[C@H]2CCCNC2)n1 [Example 236, (1S,2R)-2-Fluoro-N-(6-methyl-5-((3-(2-(((S)-piperidin-3-yl)amino)pyrimidin-4-yl)pyridin-2-yl)oxy)naphthalen-1-yl)cyclopropane-1-carboxamide]	174
Cc1ccc2c(NC[C@H](C)O)cccc2c1Oc1ncccc1-c1ccnc(N[C@H]2CCCNC2)n1 [Example 301, (S)-1-((6-Methyl-5-((3-(2-((S)-piperidin-3-ylamino)pyrimidin-4-yl)pyridin-2-yl)oxy)naphthalen-1-yl)amino)propan-2-ol]	424
Cc1ccc2c(NC(=O)C3CC4(CCC4)C3)cccc2c1Oc1ncccc1-c1ccnc(N[C@H]2CCCNC2)n1 [Example 255, (S)—N-(6-Methyl-5-((3-(2-(piperidin-3-ylamino)pyrimidin-4-yl)pyridin-2-yl)oxy)naphthalen-1-yl)spiro[3.3]heptane-2-carboxamide]	182
Cc1nc(CNc2c(F)ccc3c(Oc4ncccc4-c4ccnc(N[C@@H]5CNC[C@H](C)C5)n4)c(C)ccc23)cs1 [Example 307, 4-(2-((6-Fluoro-2-methyl-5-(((2-methylthiazol-4-yl)methyl)amino)naphthalen-1-yl)oxy)pyridin-3-yl)-N-((3S,5R)-5-methylpiperidin-3-yl)pyrimidin-2-amine]	360
Cc1ccc2c(NC(=O)C3CC3)c(F)ccc2c1Oc1ncccc1-c1ccnc(N[C@@H]2CNC[C@H](C)C2)n1 [Example 310, N-(2-Fluoro-6-methyl-5-((3-(2-(((3S,5R)-5-methylpiperidin-3-yl)amino)pyrimidin-4-yl)pyridin-2-yl)oxy)naphthalen-1-yl)cyclopropanecarboxamide]	135
COC(=O)CNc1cccc2c(Oc3ncccc3-c3ccnc(N[C@H]4CCCNC4)n3)c(C)ccc12 [Example 314, (S)-Methyl 2-((6-methyl-5-((3-(2-(piperidin-3-ylamino)pyrimidin-4-yl)pyridin-2-yl)oxy)naphthalen-1-yl)amino)acetate]	208
Cc1ccc2c(NC[C@@H]3CCOC3)cccc2c1Oc1ncccc1-c1ccnc(N[C@H]2CCCNC2)n1 (single isomer, unassigned) [Example 351]	500
Cc1ccc2c(NS(=O)(=O)c3cccnc3)cccc2c1Oc1ncccc1-c1ccnc(N[C@H]2CCCNC2)n1 [Example 149, (S)—N-(6-Methyl-5-((3-(2-(piperidin-3-ylamino)pyrimidin-4-yl)pyridin-2-yl)oxy)naphthalen-1-yl)pyridine-3-sulfonamide]	494
Cc1ccc2c(NCc3csc(C(C)C)n3)cccc2c1Oc1ncccc1-c1ccnc(N[C@H]2CCCNC2)n1 [Example 256, (S)-4-(2-((5-(((2-Isopropylthiazol-4-yl)methyl)amino)-2-methylnaphthalen-1-yl)oxy)pyridin-3-yl)-N-(piperidin-3-yl)pyrimidin-2-amine]	210
Cc1ccc2c(N3CCCC3=O)cccc2c1Oc1ncccc1-c1ccnc(N[C@H]2CCCNC2)n1 [Example 216, (S)-1-(6-Methyl-5-((3-(2-(piperidin-3-ylamino)pyrimidin-4-yl)pyridin-2-yl)oxy)naphthalen-1-yl)pyrrolidin-2-one]	260
Cc1ccc2c(NC[C@@H](C)O)cccc2c1Oc1ncccc1-c1ccnc(N[C@H]2CCCNC2)n1 [Example 300, (R)-1-((6-Methyl-5-((3-(2-((S)-piperidin-3-ylamino)pyrimidin-4-yl)pyridin-2-yl)oxy)naphthalen-1-yl)amino)propan-2-ol]	55.4
Cc1ncc(S(=O)(=O)Nc2cccc3c(Oc4ncccc4-c4ccnc(N[C@H]5CCCNC5)n4)c(C)ccc23)s1 [Example 210, (S)-2-Methyl-N-(6-methyl-5-((3-(2-(piperidin-3-ylamino)pyrimidin-4-yl)pyridin-2-yl)oxy)naphthalen-1-yl)thiazole-5-sulfonamide]	459
CCc1nc(CNc2cccc3c(Oc4ncccc4-c4ccnc(N[C@H]5CCCNC5)n4)c(C)ccc23)cs1 [Example 345, (S)-4-(2-((5-(((2-Ethylthiazol-4-yl)methyl)amino)-2-methylnaphthalen-1-yl)oxy)pyridin-3-yl)-N-(piperidin-3-yl)pyrimidin-2-amine]	171
Cc1ccc2c(NS(=O)(=O)CCC(F)(F)F)cccc2c1Oc1ncccc1-c1ccnc(N[C@H]2CCCNC2)n1 [Example 123, (S)-3,3,3-Trifluoro-N-(6-methyl-5-((3-(2-(piperidin-3-ylamino)pyrimidin-4-yl)pyridin-2-yl)oxy)naphthalen-1-yl)propane-1-sulfonamide hydrochloride]	84
Cc1ccc2c(NS(=O)(=O)N3CCC3)cccc2c1Oc1ncccc1-c1ccnc(N[C@H]2CCCNC2)n1 [Example 195, (S)—N-(6-Methyl-5-((3-(2-(piperidin-3-ylamino)pyrimidin-4-yl)pyridin-2-yl)oxy)naphthalen-1-yl)azetidine-1-sulfonamide]	202
Cc1ccc2c(NS(=O)(=O)CCCF)cccc2c1Oc1ncccc1-c1ccnc(N[C@H]2CCCNC2)n1 [Example 118, (S)-3-Fluoro-N-(6-methyl-5-((3-(2-(piperidin-3-ylamino)pyrimidin-4-yl)pyridin-2-yl)oxy)naphthalen-1-yl)propane-1-sulfonamide hydrochloride]	323
COCCS(=O)(=O)Nc1cccc2c(Oc3ncccc3-c3ccnc(N[C@H]4CCCNC4)n3)c(C)ccc12 [Example 137, (S)-2-Methoxy-N-(6-methyl-5-((3-(2-(piperidin-3-ylamino)pyrimidin-4-yl)pyridin-2-yl)oxy)naphthalen-1-yl)ethanesulfonamide]	477
Cc1ccc2c(NC(=O)CC#N)cccc2c1Oc1ncccc1-c1ccnc(N[C@H]2CCCNC2)n1 [Example 183, (S)-2-Cyano-N-(6-methyl-5-((3-(2-(piperidin-3-ylamino)pyrimidin-4-yl)pyridin-2-yl)oxy)naphthalen-1-yl)acetamide]	260
Cc1ccc2c(NC(=O)CC3CCCCC3)cccc2c1Oc1ncccc1-c1ccnc(N[C@@H]2CNC[C@H](C)C2)n1 [Example 303, 2-Cyclohexyl-N-(6-methyl-5-((3-(2-(((3S,5R)-5-methylpiperidin-3-yl)amino)pyrimidin-4-yl)pyridin-2-yl)oxy)naphthalen-1-yl)acetamide]	126
Cc1ccc2c(NS(=O)(=O)Cc3ccc(C(F)F)cc3)cccc2c1Oc1ncccc1-c1ccnc(N[C@H]2CCCNC2)n1 [Example 160, (S)-1-(4-(Difluoromethyl)phenyl)-N-(6-methyl-5-((3-(2-(piperidin-3-ylamino)pyrimidin-4-yl)pyridin-2-yl)oxy)naphthalen-1-yl)methanesulfonamide]	13
Cc1ccc2c(NCc3cnn(C)c3)cccc2c1Oc1ncccc1-c1ccnc(N[C@H]2CCCNC2)n1 [Example 265, (S)-4-(2-((2-Methyl-5-(((1-methyl-1H-pyrazol-4-yl)methyl)amino)naphthalen-1-yl)oxy)pyridin-3-yl)-N-(piperidin-3-yl)pyrimidin-2-amine]	393
Cc1ccc2c(NS(=O)(=O)Cc3ccccc3CO)cccc2c1Oc1ncccc1-c1ccnc(N[C@H]2CCCNC2)n1 [Example 166, (S)-1-(2-(Hydroxymethyl)phenyl)-N-(6-methyl-5-((3-(2-(piperidin-3-ylamino)pyrimidin-4-yl)pyridin-2-yl)oxy)naphthalen-1-yl)methanesulfonamide]	118
Cc1ccc2c(NS(=O)(=O)Cc3ccccc3)cccc2c1Oc1ncccc1-c1ccnc(N[C@H]2CCCNC2)n1 [Example 112, (S)—N-(6-Methyl-5-((3-(2-(piperidin-3-ylamino)pyrimidin-4-yl)pyridin-2-yl)oxy)naphthalen-1-yl)-1-phenylmethanesulfonamide hydrochloride]	21
Cc1ccc2c(NC(=O)C3CC34CCCCC4)cccc2c1Oc1ncccc1-c1ccnc(N[C@H]2CCCNC2)n1 (mixture of isomers) [Example 281, N-(6-Methyl-5-((3-(2-(((S)-piperidin-3-yl)amino)pyrimidin-4-yl)pyridin-2-yl)oxy)naphthalen-1-yl)spiro[2.5]octane-1-carboxamide]	89
Cc1ccc2c(NS(=O)(=O)CC(C)C)c(F)ccc2c1Oc1ncccc1-c1ccnc(N[C@H]2CCCNC2)n1 [Example 279, (S)—N-(2-Fluoro-6-methyl-5-((3-(2-(piperidin-3-ylamino)pyrimidin-4-yl)pyridin-2-yl)oxy)naphthalen-1-yl)-2-methylpropane-1-sulfonamide]	24.7

Same assay, conditions: Table 2; hydrochloride; read-out: XBP1s-luc 293 LUC (IC50)

Compound	IC50 [nM]
Cc1ccc2c(NS(=O)(=O)CC(C)C(F)(F)F)c(F)ccc2c1Oc1ncccc1-c1ccnc(N[C@H]2CCCNC2)n1 (single isomer, unassigned) [Example 455, hydrochloride]	18

Same assay, conditions: Table 2; read-out: XBP1s-luc 293 LUC (IC50)

Compound	IC50 [nM]
CCC(F)(F)CS(=O)(=O)Nc1c(F)ccc2c(Oc3ncccc3-c3ccnc(N[C@@H]4CNC[C@@H](F)C4)n3)c(C)ccc12 (single isomer, unassigned) [Example 496, hydrochloride]	17.9
Cc1ccc2c(NS(=O)(=O)C[C@@H]3CCCO3)c(F)ccc2c1Oc1ncccc1-c1ccnc(N[C@H]2CCCNC2)n1 (single isomer, unassigned) [Example 416, hydrochloride]	105
